Laboratory results: US20070298997A1, “Compounds useful in treating diabetic microvascular complications and age-related macular degeneration” (priority 2003, published 2007)

Legend:
[1] = tested on: Retinal capillary endothelial cells (RCEC); experiment: Quantification of viable cells by MTT assay, RCEC; format: cell-based, bovine; conditions: 5 μM, 48 h
Method: FIG. 2 illustrates the specific inhibition of endothelial cell proliferation by recombinant kallistatin. RCEC were treated with recombinant kallistatin at concentrations of 5,10, 20, 40, 80 and 160 nM for 72 h. Viable cells were quantified by MTT assay. […] This effect appeared to be kallistatin concentration-dependent, with an apparent IC50 of 50 nM (FIG. 2) which is similar to that of K5, a known angiogenic inhibitor (Zhang et al., 2001).
FIG. 7 illustrates the effects of B1 and B2 kinin receptor antagonists on RCEC. In order to test whether the anti-angiogenic activity of kallistatin is via reducing kinin production by inhibiting kallikrein activity, RCEC were treated with 5 μM des-Arg^9-[Leu^8]-bradykinin, a specific antagonist of the B1 kinin receptor or Hoe-140, a specific B2 kinin receptor antagonist, in the presence or absence of 40 nM kallistatin for 48 h, and viable cells were quantified by MTT assay.
Quantification of viable cells: Cells were plated in 12-well plates in triplicate and cultured in the growth medium until they reached 60-70% of confluency. The culture medium was replaced with a medium containing 1% fetal bovine serum (FBS). Recombinant kallistatin was added to the cover medium to various concentrations and incubated with the cells for 72 h. The viable cells were quantified by the MTT (3-[4,5-dimethylthiazol-2-yl]-2,5-dephenyl tetrazolium bromid, Roche, Mannheim, Germany) assay following a protocol recommended by the manufacturer. The effect of kallistatin on viable cell number was analyzed using Student's t test.

B1 receptor = conditions: at 1 mM; cited from earlier work

Substance	inhibition of RCEC (viable cells) ([1]; P>0.05)	viable cells, % of the control ([1]; P<0.05)	block of bradykinin-induced endothelial cell proliferation (B1 receptor)
Hoe-140 [reference compound]	no significant inhibition	–	–
des-Arg^9-[Leu^8]-bradykinin [reference compound]	–	85 % of the control	completely block bradykinin-induced endothelial cell proliferation
